Results reported in US10829492B2, “Amino pyrazolopyrimidine compound used as neurotrophic factor tyrosine kinase receptor inhibitor” (CHIA TAI TIANQING PHARMACEUTICAL GROUP CO., LTD., priority 2016, dated 2020).

biological target: TrkA kinase (Homo sapiens (Human), UniProt P04629); test: HTRF assay for inhibitory activity (IC50) against NTRK kinase, TrkA; format: biochemical; settings: Table 1, ATP 40 μM, kinase 0.5 nM
Description: 1. Assay for Inhibitory Activity (IC50) Against NTRK Kinase
A testing platform for TrkA, TrkB and TrkC kinase activity was established based on Homogeneous Time-Resolved Fluorescence (HTRF) assay, and the activities of the compounds were tested using the platform. The compounds were subjected to three-fold gradient dilution with 100% DMSO with a starting concentration of 1 mM (11 concentrations in total). 4 μL of diluted sample for each concentration was added to 96 μL of reaction buffer (50 mM HEPES, pH7.4, 5 mM MgCl2, 1 mM NaVO3, 0.001% Tween-20, 0.01% BSA and 1 mM DTT) and mixed homogeneously to be used as a 4* compound. The reaction buffer was used to formulate 2* TrkA, TrkB and TrkC kinases (purchased from Carna Biosciences 08-186, 08-187, 08-197, and the final concentrations thereof were 0.5 nM, 0.1 nM, and 1 nM, respectively) and 4* substrate mixture (ATP+TK peptide) (wherein the final concentrations of ATP were 40 μM, 50 μM, and 20 μM, respectively; TK peptide, HTRF® KinEASE™-TK, was purchased from Cisbio, and the final concentration thereof was 100 nM) for use. 2.5 μL of the 4* compound was added to a 384-well plate (OptiPlate-384, purchased from PerkinElmer), and then 5 μL of the 2* TrkA, TrkB and TrkC kinases were added, and mixed homogeneously by centrifugation. Then 2.5 μL of the 4* substrate mixture was added to initiate the reaction (the total reaction volume is 10 μL). The 384-well plate was placed in an incubator and incubated for 60 min at 23° C. Then the reaction was terminated by adding 5 μL of Eu3+ cryptate-labeled anti-phosphotyrosine antibody (HTRF® KinEASE™-TK, purchased from Cisbio), and 5 μL of Streptavidin-XL-665 (HTRF® KinEASE™-TK, purchased from Cisbio). After incubated for 1 hr in the incubator, the fluorescence values were read on Envision (purchased from PerkinElmer). The excitation wavelength was 320 nm, and the emission wavelengths for detection were 665 nm and 620 nm. The enzymatic activity was represented by a ratio of the two readout at the two emission wavelengths. The enzymatic activity for each compound was tested at 11 concentrations, and IC50 values of the compounds were obtained by calculating the data using GraFit6.0 software (Erithacus Software).

Sequence of TrkA kinase (P04629 33-796): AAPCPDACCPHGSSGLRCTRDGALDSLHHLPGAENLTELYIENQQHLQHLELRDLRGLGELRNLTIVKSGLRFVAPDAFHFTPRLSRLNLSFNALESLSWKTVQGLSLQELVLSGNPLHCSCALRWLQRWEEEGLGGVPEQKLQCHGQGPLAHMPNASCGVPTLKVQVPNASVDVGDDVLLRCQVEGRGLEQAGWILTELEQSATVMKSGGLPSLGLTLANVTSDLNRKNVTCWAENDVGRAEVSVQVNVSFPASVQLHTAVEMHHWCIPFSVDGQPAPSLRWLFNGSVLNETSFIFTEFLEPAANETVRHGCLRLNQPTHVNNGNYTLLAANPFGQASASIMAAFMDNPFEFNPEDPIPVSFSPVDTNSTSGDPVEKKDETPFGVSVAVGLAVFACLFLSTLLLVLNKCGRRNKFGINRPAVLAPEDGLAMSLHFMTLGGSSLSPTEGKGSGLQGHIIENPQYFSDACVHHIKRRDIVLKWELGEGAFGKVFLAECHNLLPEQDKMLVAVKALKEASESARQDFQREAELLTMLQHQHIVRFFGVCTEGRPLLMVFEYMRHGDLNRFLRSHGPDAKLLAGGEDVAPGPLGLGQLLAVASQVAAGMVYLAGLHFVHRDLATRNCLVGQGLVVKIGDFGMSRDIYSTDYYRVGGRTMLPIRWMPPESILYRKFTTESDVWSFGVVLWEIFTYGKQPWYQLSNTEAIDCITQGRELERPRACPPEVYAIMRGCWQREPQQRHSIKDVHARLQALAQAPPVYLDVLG

`NC(=O)c1c(N)nn2ccc(N3C[C@@H](O)CC3c3cc(F)ccc3F)nc12` (stereo in doubt) [Example 47, 2-amino-5-((2R,4S)-2-(2,5-difluorophenyl)-4-hydroxypyrrolidin-1-yl)pyrazolo[1,5-a]pyrimidine-3-carboxamide] and `NC(=O)c1c(N)nn2ccc(N3CCCC3c3cc(F)ccc3F)nc12` (centres unmarked) [Example 6, 2-amino-5-(2-(2,5-difluorophenyl)pyrrolidin-1-yl)pyrazolo[1,5-a]pyrimidine-3-carboxamide] cannot be ordered by IC50: less than 1000 nM for the first, less than 1 nM for the second.

`CCOC(=O)c1c(N)nn2ccc(N3CCC[C@@H]3c3cc(F)ccc3F)nc12` [Example 1, ethyl (R)-2-amino-5-(2-(2,5-difluorophenyl)pyrrolidin-1-yl)pyrazolo[1,5-a]pyrimidine-3-carboxylate] and `CCOC(=O)c1c(N)nn2ccc(N3CCCC3c3cc(F)ccc3F)nc12` (centres unmarked) [Example 5, ethyl 2-amino-5-(2-(2,5-difluorophenyl)pyrrolidin-1-yl)pyrazolo[1,5-a]pyrimidine-3-carboxylate] cannot be ordered by IC50: less than 1 nM for the first, less than 1 nM for the second.

`Nc1nn2ccc(N3CCC[C@@H]3c3cc(F)ccc3F)nc2c1C(=O)O` [Example 2, (R)-2-amino-5-(2-(2,5-difluorophenyl)pyrrolidin-1-yl)pyrazolo[1,5-a]pyrimidine-3-carboxylic Acid] and `CNC(=O)c1c(N)nn2ccc(N3CCC[C@@H]3c3cc(F)ccc3F)nc12` [Example 3, (R)-2-amino-5-(2-(2,5-difluorophenyl)pyrrolidin-1-yl)-N-methylpyrazolo[1,5-a]pyrimidine-3-carboxamide] cannot be ordered by IC50: less than 100 nM for the first, less than 1 nM for the second.

`CCOC(=O)c1c(NC(=O)NC)nn2ccc(N3CCCC3c3cc(F)ccc3F)nc12` (centres unmarked) [Example 7, ethyl 5-(2-(2,5-difluorophenyl)pyrrolidin-1-yl)-2-(3-methylureido)pyrazolo[1,5-a]pyrimidine-3-carboxylate] and `CCOC(=O)c1c(NC(C)=O)nn2ccc(N3CCC[C@@H]3c3cc(F)ccc3F)nc12` [Example 9, ethyl (R)-2-acetylamino-5-(2-(2,5-difluorophenyl)pyrrolidin-1-yl)pyrazolo[1,5-a]pyrimidine-3-carboxylate] cannot be ordered by IC50: less than 100 nM for the first, less than 25 nM for the second.

`Nc1nn2ccc(N3CCC[C@@H]3c3cc(F)ccc3F)nc2c1C(=O)N1CCC(O)C1` (stereo partly drawn) [Example 10, (2-amino-5-((R)-2-(2,5-difluorophenyl)pyrrolidin-1-yl)pyrazolo[1,5-a]pyrimidin-3-yl) (3-hydroxypyrrolidin-1-yl)methanone] and `Nc1nn2ccc(N3CCCC3c3cc(F)ccc3F)nc2c1-c1nc(C(=O)N2CC[C@H](O)C2)cs1` (stereo partly drawn) [Example 30, (2-(2-amino-5-(2-(2,5-difluorophenyl)pyrrolidin-1-yl)pyrazolo[1,5-a]pyrimidin-3-yl)thiazol-4-yl)((S)-3-hydroxypyrrolidin-1-yl)methanone] cannot be ordered by IC50: less than 25 nM for the first, less than 1 nM for the second.

`Nc1nn2ccc(N3CCC[C@@H]3c3cc(F)ccc3F)nc2c1C(=O)NCCO` [Example 13, (R)-2-amino-5-(2-(2,5-difluorophenyl)pyrrolidin-1-yl)-N-(2-hydroxyethyl)pyrazolo[1,5-a]pyrimidine-3-carboxamide] and `CN(C)CCNC(=O)c1c(N)nn2ccc(N3CCC[C@@H]3c3cc(F)ccc3F)nc12` [Example 19, (R)-2-amino-5-(2-(2,5-difluorophenyl)pyrrolidin-1-yl)-N-(2-(dimethylamino)ethyl)pyrazolo[1,5-a]pyrimidine-3-carboxamide] cannot be ordered by IC50: less than 1 nM for the first, less than 1 nM for the second.

`CCOC(=O)c1c(NC)nn2ccc(N3CCC[C@@H]3c3cc(F)ccc3F)nc12` [Example 20, ethyl (R)-5-(2-(2,5-difluorophenyl)pyrrolidin-1-yl)-2-(methylamino)pyrazolo[1,5-a]pyrimidine-3-carboxylate] and `CCNc1nn2ccc(N3CCC[C@@H]3c3cc(F)ccc3F)nc2c1C(=O)OCC` [Example 22, ethyl (R)-5-(2-(2,5-difluorophenyl)pyrrolidin-1-yl)-2-(ethylamino)pyrazolo[1,5-a]pyrimidine-3-carboxylate] cannot be ordered by IC50: less than 1000 nM for the first, less than 100 nM for the second.

`CNc1nn2ccc(N3CCC[C@@H]3c3cc(F)ccc3F)nc2c1C(N)=O` [Example 21, (R)-5-(2-(2,5-difluorophenyl)pyrrolidin-1-yl)-2-(methylamino)pyrazolo[1,5-a]pyrimidine-3-carboxamide] and `NC(=S)c1c(N)nn2ccc(N3CCCC3c3cc(F)ccc3F)nc12` (centres unmarked) [Example 31, 2-amino-5-(2-(2,5-difluorophenyl)pyrrolidin-1-yl)pyrazolo[1,5-a]pyrimidine-3-thioamide] cannot be ordered by IC50: less than 500 nM for the first, less than 1 nM for the second.

`CCOC(=O)c1c(NCCN2CCOCC2)nn2ccc(N3CCC[C@@H]3c3cc(F)ccc3F)nc12` [Example 23, ethyl (R)-5-(2-(2,5-difluorophenyl)pyrrolidin-1-yl)-2-((2-morpholinylethyl)amino)pyrazolo[1,5-a]pyrimidine-3-carboxylate] and `Nc1nn2ccc(N3CCCC3c3cc(F)ccc3F)nc2c1-c1cccc(N2CCOCC2)c1` (centres unmarked) [Example 33, 5-(2-(2,5-difluorophenyl)pyrrolidin-1-yl)-3-(3-morpholinylphenyl)pyrazolo[1,5-a]pyrimidin-2-amine] cannot be ordered by IC50: less than 100 nM for the first, less than 25 nM for the second.

`Nc1cc2nc(N3CCCC3c3cc(F)ccc3F)ccn2n1` (centres unmarked) [Example 24, 5-(2-(2,5-difluorophenyl)pyrrolidin-1-yl)pyrazolo[1,5-a]pyrimidin-2-amine] and `Cc1coc(-c2c(N)nn3ccc(N4CCCC4c4cc(F)ccc4F)nc23)n1` (centres unmarked) [Example 27] cannot be ordered by IC50: less than 500 nM for the first, less than 25 nM for the second.

`CCOC(=O)c1coc(-c2c(NCc3ccc(OC)cc3)nn3ccc(N4CCCC4c4cc(F)ccc4F)nc23)n1` (centres unmarked) [Example 26, ethyl 2-(5-(2-(2,5-difluorophenyl)pyrrolidin-1-yl)-2-((4-methoxybenzyl)amino)pyrazolo[1,5-a]pyrimidin-3-yl)oxazole-4-carboxylate] and `CCOC(=O)c1csc(-c2c(N)nn3ccc(N4CCCC4c4cc(F)ccc4F)nc23)n1` (centres unmarked) [Example 29, ethyl 2-(2-amino-5-(2-(2,5-difluorophenyl)pyrrolidin-1-yl)pyrazolo[1,5-a]pyrimidin-3-yl)thiazole-4-carboxylate] cannot be ordered by IC50: less than 100 nM for the first, less than 1 nM for the second.

`Cc1csc(-c2c(N)nn3ccc(N4CCCC4c4cc(F)ccc4F)nc23)n1` (centres unmarked) [Example 28] and `Cn1cc(-c2c(N)nn3ccc(N4CCC[C@@H]4c4cc(F)ccc4F)nc23)cn1` [Example 34] cannot be ordered by IC50: less than 25 nM for the first, less than 1 nM for the second.

`CCOC(=O)c1c(N)nn2ccc(N3C[C@@H](F)C[C@@H]3c3cc(F)ccc3F)nc12` [Example 35, ethyl 2-amino-5-((2R,4S)-2-(2,5-difluorophenyl)-4-fluoropyrrolidin-1-yl)pyrazolo[1,5-a]pyrimidine-3-carboxylate] and `CCOC(=O)c1c(N)nn2ccc(N3C[C@@H](F)C[C@H]3c3cc(F)ccc3F)nc12` [Example 37, ethyl 2-amino-5-((2S,4S)-2-(2,5-difluorophenyl)-4-fluoropyrrolidin-1-yl)pyrazolo[1,5-a]pyrimidine-3-carboxylate] cannot be ordered by IC50: less than 1 nM for the first, less than 500 nM for the second.

`CCOC(=O)c1c(N)nn2ccc(N3CC(F)(F)CC3c3cc(F)ccc3F)nc12` (centres unmarked) [Example 38, ethyl 2-amino-5-(2-(2,5-difluorophenyl)-4,4-difluoropyrrolidin-1-yl)pyrazolo[1,5-a]pyrimidine-3-carboxylate] and `CCOC(=O)c1c(N)nn2ccc(N3CC(=O)CC3c3cc(F)ccc3F)nc12` (centres unmarked) [Example 43, ethyl 2-amino-5-(2-(2,5-difluorophenyl)-4-oxopyrrolidin-1-yl)pyrazolo[1,5-a]pyrimidine-3-carboxylate] cannot be ordered by IC50: less than 25 nM for the first, less than 25 nM for the second.

`N#Cc1c(N)nn2ccc(N3C[C@@H](O)C[C@@H]3c3cc(F)ccc3F)nc12` [Example 44, 2-amino-5-((2R,4S)-2-(2,5-difluorophenyl)-4-hydroxypyrrolidin-1-yl)pyrazolo[1,5-a]pyrimidine-3-carbonitrile] and `Nc1nn2ccc(N3C[C@@H](F)C[C@@H]3c3cc(F)ccc3F)nc2c1C(=O)NC1CC1` [Example 51, 2-amino-N-cyclopropyl-5-((2R,4S)-2-(2,5-difluorophenyl)-4-fluoropyrrolidin-1-yl)pyrazolo[1,5-a]pyrimidine-3-carboxamide] cannot be ordered by IC50: less than 25 nM for the first, less than 1 nM for the second.

`Nc1nn2ccc(N3C[C@@H](F)C[C@@H]3c3cc(F)ccc3F)nc2c1C(=O)NCCO` [Example 49, 2-amino-5-((2R,4S)-2-(2,5-difluorophenyl)-4-fluoropyrrolidin-1-yl)-N-(2-hydroxyethyl)pyrazolo[1,5-a]pyrimidine-3-carboxamide] and `Nc1nn2ccc(N3C[C@@H](F)C[C@@H]3c3cc(F)ccc3F)nc2c1C(=O)NOCCO` [Example 50, 2-amino-5-((2R,4S)-2-(2,5-difluorophenyl)-4-fluoropyrrolidin-1-yl)-N-(2-hydroxyethoxy)pyrazolo[1,5-a]pyrimidine-3-carboxamide] cannot be ordered by IC50: less than 1 nM for the first, less than 1 nM for the second.
